The test system of assay [1] is M. tuberculosis standard strain Mtb H37Rv. The assay is described as follows: MIC determination against mycobacteria (resazurin microtiter assay). Format: cell-based, Mycobacterium tuberculosis. The note with it: for MIC: Mycobacterium tuberculosis, H37RV, read-out: Mtb H37Rv MIC (B); for Selectivity Index (A/B): HepG2 cell 48 h Tox50 (A) / Mtb H37Rv MIC (B). For orientation: Alamar Blue is a resazurin reagent that responds to reducing activity.

Assay [2] deals with Mtb LeuRS (Mycobacterium tuberculosis, UniProt P9WFV1). In words: LeuRS aminoacylation assay, IC50 determination. The note with it: read-out: Mtb LeuRS IC50. The assay is classed as biochemical, M. tuberculosis. As for the experimental part: For biochemical analyses an N-terminal six histidine-tagged LeuRS was over-expressed in Escherichia coli which were E. coli codon-optimised (GenScript, Piscataway N.J., USA), from human mitochondria and cytoplasm, and M. tuberculosis. N-terminal six histidine-tagged LeuRS proteins were over-expressed and purified according to Novagen (Madison, Wis., USA) using an E. coli BL21(DE3) T7 RNA polymerase over-expression strain.
Chain of Mtb LeuRS (P9WFV1 whole entry): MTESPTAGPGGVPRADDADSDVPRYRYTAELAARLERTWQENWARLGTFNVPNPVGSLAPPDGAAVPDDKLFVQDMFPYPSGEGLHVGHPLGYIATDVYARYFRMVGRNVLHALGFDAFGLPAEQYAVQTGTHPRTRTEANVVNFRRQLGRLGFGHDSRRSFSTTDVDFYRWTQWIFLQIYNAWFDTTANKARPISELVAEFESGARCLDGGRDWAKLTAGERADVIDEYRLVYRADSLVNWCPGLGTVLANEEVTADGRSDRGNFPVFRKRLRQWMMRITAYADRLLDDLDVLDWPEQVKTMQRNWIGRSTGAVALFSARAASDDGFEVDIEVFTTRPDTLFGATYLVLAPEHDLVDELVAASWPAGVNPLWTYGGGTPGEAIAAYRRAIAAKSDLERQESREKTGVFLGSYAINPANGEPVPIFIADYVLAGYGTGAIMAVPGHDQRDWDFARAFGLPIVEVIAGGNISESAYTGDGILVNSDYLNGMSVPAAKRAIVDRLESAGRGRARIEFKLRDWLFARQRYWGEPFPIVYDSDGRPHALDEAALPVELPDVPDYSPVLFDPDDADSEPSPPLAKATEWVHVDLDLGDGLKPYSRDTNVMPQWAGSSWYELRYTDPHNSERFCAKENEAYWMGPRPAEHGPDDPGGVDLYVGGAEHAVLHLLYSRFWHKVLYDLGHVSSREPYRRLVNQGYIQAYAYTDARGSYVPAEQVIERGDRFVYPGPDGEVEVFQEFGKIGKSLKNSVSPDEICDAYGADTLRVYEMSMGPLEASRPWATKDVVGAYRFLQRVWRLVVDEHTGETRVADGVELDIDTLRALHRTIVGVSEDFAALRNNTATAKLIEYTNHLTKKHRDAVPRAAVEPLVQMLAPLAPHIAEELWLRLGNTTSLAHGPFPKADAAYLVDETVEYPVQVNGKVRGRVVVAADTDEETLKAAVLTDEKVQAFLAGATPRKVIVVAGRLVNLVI
Experiments were performed in 96-well microtiter plates, using 80 μL reaction mixtures containing 50 mM HEPES-KOH (pH 8.0), 30 mM MgCl2 30 mM KCl, 13 μM L-[^14C]leucine (306 mCi/mmol, Perkin-Elmer), 15 uM total E. coli tRNA (Roche, Switzerland), 0.02% (w/v) BSA, 1 mM DTT, 0.2 μM LeuRS and 4 mM ATP at 30° C. Reactions were started by the addition of 4 mM ATP. After 7 minutes, reactions were quenched and tRNA was precipitated by the addition of 50 μL of 10% (w/v) TCA and transferred to 96-well nitrocellulose membrane filter plates (Millipore Multiscreen HTS, MSHAN4B50). Each well was then washed three times with 100 μL of 5% TCA. Filter plates were then dried under a heat lamp and the precipitated L-[^14C]leucine tRNALeu were quantified by liquid scintillation counting using a Wallac MicroBeta Trilux model 1450 liquid scintillation counter (PerkinElmer, Waltham, Mass., USA). The only difference was with the human cytoplasmic LeuRS when we used tRNA isolated from Brewer's Yeast (Roche Diagnostics GmbH).
Reactions were initiated by the addition of 4 mM ATP. Reactions were stopped after 7 minutes then precipitated and counted to quantify radioactivity. IC50 values were determined using the Graphpad Prism software package (Graphpad Software Inc. (La Jolla, Calif., USA).

In assay [3] the test system is HepG2 cells. In words: HepG2 cytotoxicity assay (resazurin). The assay is classed as cell-based.
The subject of assay [4] is A. baumannii ATCC 17978. The assay is described as follows: General antimicrobial activity assay (CLSI broth microdilution). Format: cell-based. The conditions noted are these: Acinetobacter baumannii, ATCC17978, read-out: MIC: A. baumannii ATCC 17978. As for the experimental part:
(§1) Whole-cell antimicrobial activity was determined by broth microdilution using the Clinical and Laboratory Standards Institute (CLSI) recommended procedure, Document M7-A7, “Methods for Dilution Susceptibility Tests for Bacteria that Grow Aerobically”.

The subject of assay [5] is E. coli K12 tolC::Tn10. Described as above. The assay is classed as cell-based. The conditions noted are these: Escherichia coli, read-out: MIC: E. coli K12 tolC::Tn10. On the procedure:
as §1

The test system of assay [6] is E. coli K12. Described as above. The assay is classed as cell-based. The conditions noted are these: Escherichia coli, K12, read-out: MIC: E. coli K12. As for the experimental part: as §1
The test system of assay [7] is P. aeruginosa PA01. Described as above. The assay is classed as cell-based. The conditions noted are these: Pseudomonas aeruginosa, PA01, read-out: MIC: P. aeruginosa PA01. On the procedure:
as §1

For assay [8], the target named is Human cyto LeuRS (Homo sapiens, UniProt Q9P2J5). In words: LeuRS aminoacylation assay, IC50 determination. Format: biochemical.
Chain of Human cyto LeuRS (Q9P2J5 whole entry): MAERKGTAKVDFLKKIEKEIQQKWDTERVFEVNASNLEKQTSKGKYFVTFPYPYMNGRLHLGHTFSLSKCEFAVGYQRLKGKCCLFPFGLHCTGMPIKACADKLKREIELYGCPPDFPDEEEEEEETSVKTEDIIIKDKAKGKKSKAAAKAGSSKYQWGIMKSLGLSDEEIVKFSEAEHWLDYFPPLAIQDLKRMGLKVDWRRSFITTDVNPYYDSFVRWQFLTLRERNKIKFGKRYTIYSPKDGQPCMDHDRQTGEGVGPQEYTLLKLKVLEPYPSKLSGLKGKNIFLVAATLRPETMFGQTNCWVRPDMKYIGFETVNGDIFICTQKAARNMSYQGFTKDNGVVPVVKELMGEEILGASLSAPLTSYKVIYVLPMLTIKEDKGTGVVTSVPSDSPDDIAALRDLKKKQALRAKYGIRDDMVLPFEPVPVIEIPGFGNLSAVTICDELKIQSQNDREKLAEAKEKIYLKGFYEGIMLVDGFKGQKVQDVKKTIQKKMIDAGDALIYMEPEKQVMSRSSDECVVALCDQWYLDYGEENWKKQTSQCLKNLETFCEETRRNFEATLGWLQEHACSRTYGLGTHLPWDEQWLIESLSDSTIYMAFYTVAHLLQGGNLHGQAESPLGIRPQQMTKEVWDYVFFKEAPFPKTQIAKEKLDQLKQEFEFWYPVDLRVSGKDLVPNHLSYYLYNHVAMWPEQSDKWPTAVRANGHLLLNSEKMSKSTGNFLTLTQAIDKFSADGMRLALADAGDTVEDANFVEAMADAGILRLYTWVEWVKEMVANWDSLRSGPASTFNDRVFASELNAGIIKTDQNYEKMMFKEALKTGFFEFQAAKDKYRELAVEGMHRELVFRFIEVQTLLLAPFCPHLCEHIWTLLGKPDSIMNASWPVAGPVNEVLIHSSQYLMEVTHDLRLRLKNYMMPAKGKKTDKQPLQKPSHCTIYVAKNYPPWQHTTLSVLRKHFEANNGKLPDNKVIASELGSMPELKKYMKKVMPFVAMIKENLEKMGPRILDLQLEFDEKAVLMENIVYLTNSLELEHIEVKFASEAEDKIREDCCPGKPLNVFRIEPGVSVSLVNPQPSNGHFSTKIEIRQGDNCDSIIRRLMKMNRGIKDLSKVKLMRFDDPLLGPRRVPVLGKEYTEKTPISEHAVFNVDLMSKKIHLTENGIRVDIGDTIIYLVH
Where [9] appears, read: Homo sapiens, HepG2, 48 h, read-out: HepG2 cell 48 h Tox50 (A).

By MIC is commonly meant the smallest concentration in the dilution series that meets the test's criterion for growth inhibition.

pIC50: −log10 of the molar value. Converted amounts (≈) assume the structure as drawn. Where a name gives a salt, the structure may show the parent alone. Read-outs that look alike come from different tables or passages of the source.

In the case of `NC[C@H]1OB2OCCOc3ccc(I)c1c32` [Example 6, (S)-(3-iodo-7,8-dihydro-2H-1,6,9-trioxa-9a-borabenzo[cd]azulen-2-yl)methanamine hydrochloride], the MIC in assay [1] worked out at 0.3 µM. In addition, the pIC50 is 6.48 in assay [2] and 4.44 in assay [3] (setting [9]).

On to `CC1COc2ccc(Br)c3c2B(O1)OC3CN.Cl` (centres unmarked) [Example 8, (3-bromo-8-methyl-7,8-dihydro-2H-1,6,9-trioxa-9a-borabenzo[cd]azulen-2-yl)methanamine hydrochloride], for which the “Selectivity Index (A/B)” value in assay [1] is recorded as more than 167. The MIC in assay [1] was 0.3 µM; in assay [4], more than 64 µg/mL; in assay [5] it was more than 64 µg/mL; in assay [6] it was more than 64 µg/mL; in assay [7] it was more than 64 µg/mL. The pIC50 is 5.84 in assay [2], less than 3.52 in assay [8] and less than 4.30 in assay [3] (setting [9]).

On to `Cl.NCC1OB2OCCOc3ccc(F)c1c32` (centres unmarked) [Example 5, (3-fluoro-7,8-dihydro-2H-1,6,9-trioxa-9a-borabenzo[cd]azulen-2-yl)methanamine hydrochloride)], for which, in assay [1], the MIC is 0.6 µM. Besides, the results for the pIC50 in assay [2] and in assay [3] (setting [9]) were 6.34 and 4.31, respectively.

On to `Cl.NCC1OB2OCCOc3ccc(F)c1c32` (centres unmarked) [Example 5], for which the MIC is more than 64 µg/mL in assay [4], 64 µg/mL in assay [5], 32 µg/mL in assay [6] and 4 µg/mL in assay [7].

For the compound `C[C@@]1(CO)COc2ccc(Br)c3c2B(OC3CN)O1` (stereo partly drawn) [Example 16, ((2S,8R, or 2R,8S)-2-(aminomethyl)-3-bromo-8-methyl-7,8-dihydro-2H-1,6,9-trioxa-9a-borabenzo[cd]azulen-8-yl)methanol], the “Selectivity Index (A/B)” value in assay [1] is more than 40. Also, the MIC in assay [1] stood at 1.25 µM (≈ 0.41 µg/mL). Moreover, the pIC50 was 5.57 in assay [2] and less than 4.30 in assay [3] (setting [9]).

Regarding `CC1(C)COB2OC(CN)c3c(Cl)ccc(c32)O1` (centres unmarked) [Example C9-Cl, reference compound], the “Selectivity Index (A/B)” value is listed as more than 10 in assay [1] and 10 in assay [1] (listed as C9-CI). Further, the pIC50 is 4.42 in assay [2] and less than 4.30 in assay [3] (setting [9]).

Take `NC[C@H]1OB2OCCOc3c(Cl)cc(Cl)c1c32` [Example C14-Cl2, reference compound]: in assay [1], the “Selectivity Index (A/B)” value was more than 10 and the minimal inhibitory concentration (MIC) was more than 5 µM. The pIC50 in assay [2] was 5.33. The pIC50 in assay [3] (setting [9]) was less than 4.30.

As to `CC1(C)COc2cccc3c2B(OC3CN)O1` (centres unmarked) [Example C12-H, reference compound], the “Selectivity Index (A/B)” value in assay [1] is more than 4.9. Further, the MIC is more than 5 µM in assay [1]; 4 µg/mL (≈ 17.2 µM) in assay [4]; 2 µg/mL (≈ 8.58 µM) in assay [5]; 4 µg/mL (≈ 17.2 µM) in assay [6]; 16 µg/mL (≈ 68.6 µM) in assay [7]. Besides, the values for the pIC50 in assay [2] and in assay [3] (setting [9]) were 5.88 and 4.61, respectively.

Regarding `Cl.NCC1OB2OCCOc3ccc(Cl)c1c32` (racemic) [Example 3], the “Selectivity Index (A/B)” value in assay [1] (listed as EXAMPLE 3 G3-Br, hydrochloride) is listed as more than 106; in assay [1] (listed as Example 3 G3-CI, hydrochloride) it was more than 106. Further, the MIC in assay [4], in assay [5], in assay [6] and in assay [7] was more than 64 µg/mL throughout.

Turning to `CC1COc2c(Cl)cc(Cl)c3c2B(O1)OC3CN` (centres unmarked) [Example C7-Cl2, reference compound], the “Selectivity Index (A/B)” value in assay [1] is listed as more than 20. Besides, the pIC50 in assay [2] was 5.10; in assay [3] (setting [9]) it was less than 4.30.

With `CC1(C)COc2c(Cl)ccc3c2B(OC3CN)O1` (centres unmarked) [Example C8-Cl, reference compound], in assay [1], the “Selectivity Index (A/B)” value stood at 10 and the MIC is more than 5 µM. In addition, in assay [2], the pIC50 was 5.22. The pIC50 in assay [3] (setting [9]) was less than 4.30.

For `Cl.NCC1OB2OCCOc3ccc(Br)c1c32` (racemic) [Example 1], the “Selectivity Index (A/B)” value is listed as more than 277 in assay [1] (listed as EXAMPLE 1 G1-Br, hydrochloride) and more than 277 in assay [1] (listed as Example 1 G1-Br, hydrochloride). Moreover, the MIC in assay [4], in assay [5], in assay [6] and in assay [7] was more than 64 µg/mL each time.

For the compound `NC[C@H]1OB2OCCOc3c(Cl)ccc1c32` [Example C13-Cl, reference compound], the “Selectivity Index (A/B)” value in assay [1] was more than 10. Also, the pIC50 in assay [3] (setting [9]) is less than 4.30.

Regarding `C[C@@]1(CO)COc2ccc(Cl)c3c2B(OC3CN)O1` (single isomer, unassigned) [Example 14, ((2S,8R or 2R,8S)-2-(aminomethyl)-3-chloro-8-methyl-7,8-dihydro-2H-1,6,9-trioxa-9a-borabenzo[cd]azulen-8-yl)methanol], the “Selectivity Index (A/B)” value in assay [1] is recorded as more than 4. Also, the MIC in assay [1] came out at 1.25 µM (≈ 0.354 µg/mL). The pIC50 is 5.38 in assay [2] and less than 4.30 in assay [3] (setting [9]).

For the compound `CC1(C)COB2OC(CN)c3cccc(c32)O1` (centres unmarked) [Example C10-H, reference compound], the minimum inhibitory concentration (MIC) in assay [1] was more than 5 µM. Also, the values for the pIC50 in assay [2] and in assay [3] (setting [9]) were less than 3.52 and less than 4.30, respectively.

For the compound `C[C@]1(CO)COc2ccc(Cl)c3c2B(OC3CN)O1` (stereo partly drawn) [Example 15, ((2S,8S, or 2R,8R)-2-(aminomethyl)-3-chloro-8-methyl-7,8-dihydro-2H-1,6,9-trioxa-9a-borabenzo[cd]azulen-8-yl)methanol], in assay [1], the “Selectivity Index (A/B)” value is more than 50. Further, the MIC in assay [1] was 0.93 µM (≈ 0.264 µg/mL). The pIC50 in assay [2] was 5.50; in assay [3] (setting [9]), less than 4.30.

With `C[C@]1(CO)COc2ccc(Br)c3c2B(O[C@@H]3CN)O1` [Example 17, ((2S,8S, or 2R,8R)-2-(aminomethyl)-3-bromo-8-methyl-7,8-dihydro-2H-1,6,9-trioxa-9a-borabenzo[cd]azulen-8-yl)methanol], in assay [1], the “Selectivity Index (A/B)” value is recorded as more than 50 and the MIC came to 0.925 µM (≈ 0.303 µg/mL). In addition, the pIC50 in assay [2] was 5.71. Besides, in assay [3] (setting [9]), the pIC50 was less than 4.30.

On to `Cl.NCC1OB2OCCOc3ccc(Cl)c1c32` (racemic) [Example 3, 3-chloro-7,8-dihydro-2H-1,6,9-trioxa-9a-borabenzo[cd]azulen-2-yl)methanamine hydrochloride], for which the MIC in assay [1] came out at 0.47 µM. For the same compound, the pIC50 is 6.61 in assay [2] and less than 4.30 in assay [3] (setting [9]).

Regarding `c1cc2c3c(c1)OCCOB3OC2` [Example C1-H, reference compound], the values for the pIC50 in assay [2] and in assay [8] were 4.91 and 4.00, respectively.

In the case of `CC1COc2cccc3c2B(O1)OC3CN` (centres unmarked) [Example C11-H, reference compound], in assay [1], the “Selectivity Index (A/B)” value was more than 32. Further, the MIC came out at 4 µg/mL (≈ 18.3 µM) in assay [4], 2 µg/mL (≈ 9.13 µM) in assay [5], 2 µg/mL (≈ 9.13 µM) in assay [6] and 2 µg/mL (≈ 9.13 µM) in assay [7]. Besides, the pIC50 is 6.29 in assay [2] and less than 4.30 in assay [3] (setting [9]).

Regarding `Cl.NC[C@H]1OB2O[C@H](CO)COc3ccc(F)c1c32` [Example 13, ((2S,8R)-2-(aminomethyl)-3-fluoro-7,8-dihydro-2H-1,6,9-trioxa-9a-borabenzo[cd]azulen-8-yl)methanol hydrochloride], in assay [1], the “Selectivity Index (A/B)” value is more than 10 and the MIC came out at 0.55 µM. In addition, the pIC50 in assay [2] was 6.32. Besides, the pIC50 in assay [3] (setting [9]) was less than 4.30.

Regarding `NCCOc1cccc2c1B(O)OC2` [Example C3-H, reference compound], in assay [1], the “Selectivity Index (A/B)” value is given as more than 0.8. The pIC50 in assay [2] was 4.75; in assay [8] it was 4.45; in assay [3] (Homo sapiens, HepG2, 48 h; read-out: HepG2 cell 48 h Tox50 (A)), less than 4.30.

Regarding `Cl.NCC1OB2OCCOc3ccc(Br)c1c32` (racemic) [Example 1, 3-bromo-7,8-dihydro-2H-1,6,9-trioxa-9a-borabenzo[cd]azulen-2-yl)methanamine hydrochloride], in assay [1], the minimal inhibitory concentration (MIC) stood at 0.18 µM. The pIC50 in assay [2] was 6.81; in assay [3] (setting [9]), less than 4.30.
